Experiments:
[1] = test system: Human promyelocytic leukemia (HL60) cells; assay: HL-60 cell differentiation (nitro blue tetrazolium reduction); format: cell-based; conditions: FIG. 2; for EC50: HL60 cells, 4 days, NBT reduction
Description: The study drugs were dissolved in ethanol and the concentrations determined using UV spectrophotometry. Serial dilutions were prepared so that a range of drug concentrations could be tested without changing the final concentration of ethanol (≦0.2%) present in the cell cultures.
Human promyelocytic leukemia (HL60) cells were grown in RPMI-1640 medium containing 10% fetal bovine serum. The cells were incubated at 37° C. in the presence of 5% CO2.
HL60 cells were plated at 1.2×10^5 cells/ml. Eighteen hours after plating, cells in duplicate were treated with drug. […] The percentage of differentiated cells was determined by counting a total of 200 cells and recording the number that contained intracellular black-blue formazan deposits. Verification of differentiation to monocytic cells was determined by measuring phagocytic activity (data not shown).

[2] = test system: vitamin D-deficient rats; assay: Bone calcium mobilization (serum calcium) in vitamin D-deficient rats; format: in vivo, rat
Description: (§1) Intestinal Calcium Transport and Bone Calcium Mobilization
(§2) Male, weanling Sprague-Dawley rats were placed on Diet 11 (0.47% Ca) diet+AEK for one week followed by Diet 11 (0.02% Ca)+AEK for 3 weeks. The rats were then switched to a diet containing 0.47% Ca for one week followed by two weeks on a diet containing 0.02% Ca. Dose administration began during the last week on 0.02% calcium diet. Four consecutive ip doses were given approximately 24 hours apart. Twenty-four hours after the last dose, blood was collected from the severed neck and the concentration of serum calcium determined as a measure of bone calcium mobilization. The first 10 cm of the intestine was also collected for intestinal calcium transport analysis using the everted gut sac method.

[3] = test system: vitamin D-deficient rats; assay: Intestinal calcium transport (everted gut sac) in vitamin D-deficient rats; format: in vivo, rat; conditions: for intestinal calcium transport: everted gut sac, FIG. 5
Description: as §1, §2

[4] = target: T1, full-length recombinant rat vitamin D receptor (Rattus norvegicus, UniProt P13053); assay: Vitamin D receptor competitive binding with [3H]-1,25(OH)2D3; conditions: full-length recombinant rat VDR, FIG. 1
T1 construct: Full-length recombinant rat receptor was expressed in E. coli BL21 (DE3) Codon Plus RIL cells; histidine tag (C); made in house; host or cells: E. coli BL21 (DE3) Codon Plus RIL
T1 sequence (P13053 1-423): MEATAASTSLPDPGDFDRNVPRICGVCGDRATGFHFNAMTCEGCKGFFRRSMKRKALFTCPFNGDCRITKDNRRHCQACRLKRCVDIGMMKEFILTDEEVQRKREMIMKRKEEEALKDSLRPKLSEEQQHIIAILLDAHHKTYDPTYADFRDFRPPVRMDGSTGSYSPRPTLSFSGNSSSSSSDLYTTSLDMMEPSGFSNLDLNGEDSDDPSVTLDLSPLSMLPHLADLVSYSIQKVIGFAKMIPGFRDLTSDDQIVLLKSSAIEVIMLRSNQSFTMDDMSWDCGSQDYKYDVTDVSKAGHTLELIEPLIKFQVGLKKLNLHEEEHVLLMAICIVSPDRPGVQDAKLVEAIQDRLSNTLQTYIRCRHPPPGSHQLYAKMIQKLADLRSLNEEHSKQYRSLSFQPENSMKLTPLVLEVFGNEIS
Text: Vitamin D Receptor Binding
Full-length recombinant rat receptor was expressed in E. coli BL21 (DE3) Codon Plus RIL cells and purified to homogeneity using two different column chromatography systems. The first system was a nickel affinity resin that utilizes the C-terminal histidine tag on this protein. The protein that was eluted from this resin was further purified using ion exchange chromatography (S-Sepharose Fast Flow). Aliquots of the purified protein were quick frozen in liquid nitrogen and stored at −80° C. until use. For use in binding assays, the protein was diluted in TEDK50 (50 mM Tris, 1.5 mM EDTA, pH7.4, 5 mM DTT, 150 mM KCl) with 0.1% Chaps detergent. The receptor protein and ligand concentration were optimized such that no more than 20% of the added radiolabeled ligand was bound to the receptor.
Radiolabeled and unlabeled ligands were added to 100 mcl of the diluted protein at a final ethanol concentration of ≦10%, mixed and incubated overnight on ice to reach binding equilibrium. The following day, 100 mcl of hydroxylapatite slurry (50%) was added to each tube and mixed at 10-minute intervals for 30 minutes. The hydroxylapaptite was collected by centrifugation and then washed three times with Tris-EDTA buffer (50 mM Tris, 1.5 mM EDTA, pH 7.4) containing 0.5% Titron X-100. […] Total binding was determined from the tubes containing only radiolabeled ligand.

[5] = test system: 24-hydroxylase (24 Ohase) gene promoter; assay: In vitro transcription assay (24-hydroxylase promoter luciferase reporter in ROS 17/2.8 bone cells); format: cell-based; conditions: FIG. 3
Description: In Vitro Transcription Assay
Transcription activity was measured in ROS 17/2.8 (bone) cells that were stably transfected with a 24-hydroxylase (24 Ohase) gene promoter upstream of a luciferase reporter gene (Arbour et al., 1998). Cells were given a range of doses. Sixteen hours after dosing the cells were harvested and luciferase activities were measured using a luminometer.
RLU=relative luciferase units.

| binding to the receptor as compared to the standard 1,25-(OH)2D3 [4] | Ki ([4]; read-out: Ki, competition with [3H]-1,25(OH)2D3 for binding to the vitamin D receptor) [nM] | EC50 ([1]; Homo sapiens, HL-60, 96 h) [nM] | EC50 ([5]; ROS 17/2.8 cells, 24-OHase promoter-luciferase, 16 h, read-out: EC50, transcriptional activity in bone cells) [nM] | Structure (SMILES) | EC50 [1] [nM] | serum calcium levels (bone calcium mobilization) ([2]; rats on 0.02% Ca diet, 4 consecutive ip doses, all dosages, FIG. 4) | intestinal calcium transport ([3]; 260 pmol/day) | potency on HL-60 cell differentiation compared to 1,25(OH)2D3 [1] | transcriptional activity in bone cells compared to 1α,25-dihydroxyvitamin D3 [5] | mobilization of bone calcium ([2]; 87 pmol/day for 4 consecutive days, rats on 0.02% Ca diet, FIG. 4) | mobilization of bone calcium ([2]; 260 pmol/day, 780 pmol/day and 7020 pmol/day, rats on 0.02% Ca diet, FIG. 4) | bone calcium mobilization activity as compared to 1,25(OH)2D3 ([2]; FIG. 4, overall) | intestinal calcium transport ([3]; 87 pmol/day, 260 pmol/day or 780 pmol/day) | intestinal calcium transport ([3]; 2340 pmol/day) | activity in stimulating intestinal calcium transport as compared to 1,25(OH)2D3 ([3]; FIG. 5, overall) |
| --- | --- | --- | --- | --- | --- | --- | --- | --- | --- | --- | --- | --- | --- | --- | --- |
| – | – | – | – | C=C1/C(=C\C=C2/CCC[C@]3(C)[C@@H]([C@H](C)CCCC(C)(C)O)CC[C@@H]23)C[C@@H](O)C[C@@H]1O [1,25(OH)2D3, 1α,25-dihydroxyvitamin D3, reference compound] | 3.6 | increased serum calcium levels at all dosages | promotes a significant increase | – | – | – | – | – | – | – | – |
| bound slightly less | 1.6 | 37 | 4.4 | CCC(C)C1CCC2C(=CC=C3CC(O)C(C)C(O)C3)CCCC21C [2α-methylbisP, 2α-methyl-19-nor-(20S)-1α-hydroxy-bishomopregnacalciferol] | – | – | – | almost as potent as 1,25(OH)2D3 | about the same transcriptional activity | did not result in mobilization of bone calcium | without any substantial effect | very little bone calcium mobilization activity | does not promote intestinal calcium transport | significant intestinal calcium transport activity was recorded | very little activity |
